Assay results as given in article PMC2994747, “Molecular Characterization of c-Abl/c-Src Kinase Inhibitors Targeted against Murine Tumour Progenitor Cells that Express Stem Cell Markers” (PLoS ONE, 2010).

Experiments:
A2C12 = test: Cell cycle analysis by flow cytometry; type: cell-based, mouse; conditions: IC50 concentration, 96 h
How it was run: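 Trypsinized cells, PBS wash, resuspend in kit buffer; spin, solution A 10 min RT; add solution B, incubate; add solution C, 4°C, dark. Kept on ice, light-protected, until flow cytometry.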

all tested cell lines = test: Caspase-Glo 3/7 activity assay, all tested cell lines; type: cell-based; conditions: IC50 concentration, 24 h; vs vehicle
Procedure: According to instructions, Caspase-Glo® 3/7 assay (Promega GmbH, Mannheim, Germany) was used for monitoring caspase activity. Briefly, the same volume Caspase-Glo reagent as culture medium was added and incubated 1 h at room temperature. Luminescence was read with a Victor3 Wallac 1420 Multilabel counter (PerkinElmer, Rodgau, Germany). Background absorbance (medium only) was subtracted and the data given as percent of vehicle controls.

GammaA3 = test: Whole genome expression analysis (Affymetrix microarray); type: cell-based, mouse; conditions: for Significantly differentially regulated genes, downregulated (number) / Significantly differentially regulated genes, upregulated (number): SAM FDR<0.01, FC>2
Procedure: (§1) The cells were harvested and RNA was isolated using RNeasy Mini Kit (Qiagen, Hilden, Germany) according to the instructions of the manufacturer. The isolated RNA (250 ng) was processed further using standard protocols as described recently with the exception of the 3′ IVT Express Kit (Affymetrix, High Wycombe, UK) that was utilized according to instructions. Quality control of cRNA was done with the Agilent 2100 Bioanalyzer (Agilent Tech according to manufacturer's protocols. Following fragmentation, cRNA of each sample was hybridized to Affymetrix GeneChip® Mouse Genome 430 2.0 or Human Genome U133 Plus 2.0 and scanned with an Affymetrix 3000 7G scanner.
(§2) The resultant data was normalized by Probe Logarithmic Intensity Error Estimation (PLIER) algorithm. Statistical analysis was carried out with the ArrayTrack software (National Center for Toxicological Research/FDA, Jefferson, AR, USA) using SAM algorithm.

[1] = tested on: murine and human cell lines; test: Whole genome expression analysis, statements over several cell lines; type: cell-based
Procedure: as §1, §2

HepG2 = test: Western blot, semi-quantitative protein expression; type: cell-based, human
Procedure: For the Western Blot analysis, cells were rinsed and lysed as previously described. An amount of 25 µg protein was used for SDS-PAGE. Antibodies for c-Abl (sc-131), Actin (sc-1616), Cdc2-p34 (sc-8395), EPS15 (sc-1840), FAK (sc-558), c-Fos (sc-52), p38 (sc-7972), p53 (sc-6243) and STAT5 (sc-835x) were obtained from Santa Cruz (Santa Cruz Biotechnology, Heidelberg, Germany), while c-Src (2109) and phospho-Src Y416 (2101) were purchased from Cell Signaling (Cell Signaling Technology, Frankfurt a. M., Germany). The EGFR (06-847), phospho-EGFR Y992 (07-821) and phospho-EGFR Y1045 (04-284) stem from Upstate (Upstate, Schwalbach, Germany) and the hnRNP-K (A300-676A) from Bethyl Labs (Bethyl Laboratories, Montgomery, Texas, USA). Finally p73 (IMG-246) was supplied by Imgenex (Imgenex, Hamburg, Germany). Depending on the primary antibody the secondary antibodies were either horseradish peroxidase-conjugated anti-mouse (AP 160P), anti-rabbit (AP 132P) or anti-sheep (AP 147P) (Chemicon, Schwalbach, Germany).
Semi-quantitative analysis were carried out with Kodak 1D Image Analysis Software in reference to the vehicle treated control cells (see supplementary table S7).

c-Abl = target: T1, c-Abl (Homo sapiens, UniProt P00519); test: Abl filter-binding kinase assay (Abtide, [γ-32P]ATP); type: biochemical; conditions: isolated Abl; calculated from ID50, ATP-competitive; E0 0.005, S0 0.012 µM
T1 construct: His tag; purchased Upstate (Lake Placid, NY, USA)
Procedure: Baculovirus-produced recombinant purified his-tagged active against human Src and Abl were purchased from Upstate (Lake Placid, NY, USA).
Src activity was measured in a filter-binding assay using the Src Assay Kit (Upstate, Lake Placid, NY, USA), according to the manufacturer's protocol, using the specific Src peptide substrate [[…]] in the presence of 0.125 pmol of Src and 0.160 pmol of [γ-^32P]ATP. Abl activity was measured in a filter-binding assay using an Abl specific peptide substrate (Abtide, Upstate). Reaction conditions were (in a final volume of 10 µl): 25 mM Tris-HCl pH 7.5, 1 mM DTT, 0.012 µM [γ-^32P]ATP, 0.022 µM c-Abl. Reactions were incubated 10 min at 30°C.The samples (9 µl) were spotted on paper cellulose filters which were washed according to the manufacturer's protocol. Filter-bound radioactivity was measured by liquid scintillation with a Microbeta-Trilux apparatus (PerkinElmer, Waltham, MA, USA).
The ID50 were converted to Ki according to a competitive mechanism with respect to the substrate ATP. […] Since (i) the ATP concentration was limiting, i.e., [ATP], Km(ATP), and (ii) the enzyme concentration was not negligible with respect to the ATP concentration, the classical Cheng-Prusoff relationship was not applicable. Consequently, Ki values were calculated according to [drawing 3] (2) where S0 is the concentration of the competing substrate (ATP) and E0 is the concentration of the enzyme. Each experiment was done in triplicate and mean values were used for the interpolation. Curve fitting was performed with the program GraphPad Prism.

[2] = IC50 concentration, 96 h, vs control

T1 sequence (P00519 whole entry): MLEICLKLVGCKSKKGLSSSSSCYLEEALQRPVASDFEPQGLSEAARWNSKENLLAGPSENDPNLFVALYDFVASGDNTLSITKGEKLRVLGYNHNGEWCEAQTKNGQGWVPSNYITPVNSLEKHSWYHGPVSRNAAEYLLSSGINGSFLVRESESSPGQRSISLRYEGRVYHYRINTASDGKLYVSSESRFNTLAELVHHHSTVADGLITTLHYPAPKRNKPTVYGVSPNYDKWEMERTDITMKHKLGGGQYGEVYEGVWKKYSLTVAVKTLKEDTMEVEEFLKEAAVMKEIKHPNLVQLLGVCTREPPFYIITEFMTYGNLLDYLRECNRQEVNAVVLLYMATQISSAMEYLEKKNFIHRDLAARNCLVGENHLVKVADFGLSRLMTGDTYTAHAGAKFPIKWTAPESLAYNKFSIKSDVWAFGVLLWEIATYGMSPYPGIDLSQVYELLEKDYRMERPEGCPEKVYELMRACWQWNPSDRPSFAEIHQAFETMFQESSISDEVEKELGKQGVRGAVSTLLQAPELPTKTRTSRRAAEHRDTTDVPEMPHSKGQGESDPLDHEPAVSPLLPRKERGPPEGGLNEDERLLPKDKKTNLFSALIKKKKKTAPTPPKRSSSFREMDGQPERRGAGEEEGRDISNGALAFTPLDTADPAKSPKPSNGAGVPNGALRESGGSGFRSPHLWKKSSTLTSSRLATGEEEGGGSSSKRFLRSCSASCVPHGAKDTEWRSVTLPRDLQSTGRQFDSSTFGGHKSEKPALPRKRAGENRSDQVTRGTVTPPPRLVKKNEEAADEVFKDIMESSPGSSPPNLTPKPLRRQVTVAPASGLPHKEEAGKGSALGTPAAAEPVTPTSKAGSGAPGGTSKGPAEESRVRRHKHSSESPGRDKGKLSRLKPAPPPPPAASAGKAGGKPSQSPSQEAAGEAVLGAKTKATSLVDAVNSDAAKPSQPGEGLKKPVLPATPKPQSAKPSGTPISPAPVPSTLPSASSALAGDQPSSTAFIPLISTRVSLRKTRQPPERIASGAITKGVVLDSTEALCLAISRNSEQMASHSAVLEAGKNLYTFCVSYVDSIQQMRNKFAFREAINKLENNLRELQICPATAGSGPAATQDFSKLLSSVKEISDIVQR

CSc1nc(NCCc2ccc(Cl)cc2)c2cnn(CC(Cl)c3ccccc3)c2n1 (stereo not drawn) [Si57]
Cells in G1 phase (A2C12): 44.1% | Cells in G2 phase (A2C12): 12.2% | Cells in S phase (A2C12): 43.7% | Change of caspase-3/7 activity in all cell lines (all tested cell lines): declined

Clc1cccc(Nc2nc(SC3CCCC3)nc3c2cnn3CC(Cl)c2ccccc2)c1 (stereo not drawn) [Si135]
Significantly differentially regulated genes, downregulated (number) (GammaA3; IC50 concentration, 96 h): 66 | Significantly differentially regulated genes, upregulated (number) (GammaA3; IC50 concentration, 96 h): 79 | Actg2 gene expression (GammaA3; [2]): -1.23 log2 of fold change | Ccl5 gene expression (GammaA3; [2]): 3.04 log2 of fold change | Cenpa gene expression (GammaA3; [2]): 1.11 log2 of fold change | Col1a1 gene expression (GammaA3; [2]): -1.15 log2 of fold change | Has2 gene expression (GammaA3; [2]): -1.09 log2 of fold change | Itga6 gene expression (GammaA3; [2]): 1.72 log2 of fold change | Mapk8ip1 gene expression (GammaA3; [2]): -1.05 log2 of fold change | Mmp3 gene expression (GammaA3; [2]): 1.52 log2 of fold change | Mmp13 gene expression (GammaA3; [2]): 1.29 log2 of fold change | Ngef gene expression (GammaA3; [2]): 1.56 log2 of fold change | Tbrg4 gene expression (GammaA3; [2]): -1.09 log2 of fold change | Ywhaz gene expression (GammaA3; [2]): -1.04 log2 of fold change | Zyx gene expression (GammaA3; [2]): -1.34 log2 of fold change | Cells in G1 phase (A2C12): 54.5% | Cells in G2 phase (A2C12): 12.6% | Cells in S phase (A2C12): 33% | Genes regulated in common in A549 and CaCo2 (number) ([1]; Fig. 4A): 13 | Significantly regulated genes (number) ([1]; IC50 concentration, 96 h, cell line not stated): approx. 150 | Actin protein expression (HepG2): 68 | Cdc2-p34 protein expression (HepG2): 9 | EGFR Y992-p protein expression (HepG2): 8 | EGFR Y1045-p protein expression (HepG2): 28 | EGFR protein expression (HepG2): 261 | EPS15 protein expression (HepG2): 48 | FAK protein expression (HepG2): 130 | STAT5 protein expression (HepG2): 61 | c-Abl protein expression (HepG2): 34 | c-Fos protein expression (HepG2): 43 | c-Src Y416-p protein expression (HepG2): 16 | c-Src protein expression (HepG2): 78 | hnRNP-K protein expression (HepG2): 70 | p38 protein expression (HepG2): 51 | p53 protein expression (HepG2): 19 | Ki (c-Abl): 0.12 µM

Fc1ccccc1CNc1ncnc2c1cnn2CC(Cl)c1ccc(Br)cc1 (stereo not drawn) [Si162]
Actg2 (actin, gamma 2, smooth muscle, enteric) regulated gene, Si162 vs Ktr FC (GammaA3): -4.78 | Bcl2l11 (BCL2-like 11 (apoptosis facilitator) (Bim)) regulated gene, Si162 vs Ktr FC (GammaA3): 1.33 | Birc5 (baculoviral IAP repeat-containing 5) regulated gene, Si162 vs Ktr FC (GammaA3): -3.04 | Capn5 (calpain 5) regulated gene, Si162 vs Ktr FC (GammaA3): 1.96 | Casp6 (caspase 6, apoptosis-related cysteine peptidase) regulated gene, Si162 vs Ktr FC (GammaA3): 1.07 | Ccna2 (cyclin A2) regulated gene, Si162 vs Ktr FC (GammaA3): -2.93 | Ccnb2 (cyclin B2) regulated gene, Si162 vs Ktr FC (GammaA3): -2.44 | Cdc2 (cell division cycle 2 (Cdk1)) regulated gene, Si162 vs Ktr FC (GammaA3): -2.12 | Cdkn1a (cyclin-dependent kinase inhibitor 1A (p21Cip1)) regulated gene, Si162 vs Ktr FC (GammaA3): 1.27 | Cdkn2b (cyclin-dependent kinase inhibitor 2B (p15)) regulated gene, Si162 vs Ktr FC (GammaA3): 1.13 | Cdkn3 (cyclin-dependent kinase inhibitor 3) regulated gene, Si162 vs Ktr FC (GammaA3): -2.80 | Cenpa (centromere protein A) regulated gene, Si162 vs Ktr FC (GammaA3): -2.62 | Crk (v-crk sarcoma virus CT10 oncogene homolog (avian)) regulated gene, Si162 vs Ktr FC (GammaA3): -2.00 | Ctnnb1 (catenin (cadherin-associated protein), beta 1, 88kDa) regulated gene, Si162 vs Ktr FC (GammaA3): 1.94 | Ctsb (cathepsin B) regulated gene, Si162 vs Ktr FC (GammaA3): 1.20 | Cxcl12 (chemokine (C-X-C motif) ligand 12) regulated gene, Si162 vs Ktr FC (GammaA3): -2.74 | Dgka (diacylglycerol kinase, alpha 80kDa) regulated gene, Si162 vs Ktr FC (GammaA3): 2.90 | Fas (Fas (TNF receptor superfamily, member 6)) regulated gene, Si162 vs Ktr FC (GammaA3): 1.40 | Gadd45a (growth arrest and DNA-damage-inducible, alpha) regulated gene, Si162 vs Ktr FC (GammaA3): 2.78 | Grb10 (growth factor receptor-bound protein 10) regulated gene, Si162 vs Ktr FC (GammaA3): 3.65 | Gsk3b (glycogen synthase kinase 3 beta) regulated gene, Si162 vs Ktr FC (GammaA3): 1.12 | Itga6 (integrin, alpha 6) regulated gene, Si162 vs Ktr FC (GammaA3): 4.04 | Jakmip3 (janus kinase and microtubule interacting protein 3) regulated gene, Si162 vs Ktr FC (GammaA3): 4.07 | Lrdd (leucine-rich repeats and death domain containing (Pidd)) regulated gene, Si162 vs Ktr FC (GammaA3): 1.03 | Mdm2 (Mdm2 p53 binding protein homolog (mouse)) regulated gene, Si162 vs Ktr FC (GammaA3): 2.15 | Mmp3 (matrix metallopeptidase 3 (stromelysin 1, progelatinase)) regulated gene, Si162 vs Ktr FC (GammaA3): 2.73 | Mmp13 (matrix metallopeptidase 13 (collagenase 3)) regulated gene, Si162 vs Ktr FC (GammaA3): 2.98 | Nfib (nuclear factor I/B) regulated gene, Si162 vs Ktr FC (GammaA3): -1.23 | Notch3 (Notch homolog 3 (Drosophila)) regulated gene, Si162 vs Ktr FC (GammaA3): 2.78 | Ogn (osteoglycin) regulated gene, Si162 vs Ktr FC (GammaA3): -5.01 | Perp (PERP, TP53 apoptosis effector) regulated gene, Si162 vs Ktr FC (GammaA3): 6.09 | Pik3ca (phosphoinositide-3-kinase, catalytic, alpha polypeptide) regulated gene, Si162 vs Ktr FC (GammaA3): 1.27 | Plcg2 (phospholipase C, gamma 2) regulated gene, Si162 vs Ktr FC (GammaA3): 1.36 | Plk1 (polo-like kinase 1 (Drosophila)) regulated gene, Si162 vs Ktr FC (GammaA3): -3.17 | Pmaip1 (phorbol-12-myristate-13-acetate-induced protein 1 (Noxa)) regulated gene, Si162 vs Ktr FC (GammaA3): 1.94 | Ptk2 (PTK2 protein tyrosine kinase 2 (FAK)) regulated gene, Si162 vs Ktr FC (GammaA3): 1.99 | Rock1 (Rho-associated, coiled-coil containing protein kinase 1) regulated gene, Si162 vs Ktr FC (GammaA3): 1.14 | Spp1 (secreted phosphoprotein 1) regulated gene, Si162 vs Ktr FC (GammaA3): 1.01 | Srf (serum response factor) regulated gene, Si162 vs Ktr FC (GammaA3): -1.12 | Tec (tec protein tyrosine kinase) regulated gene, Si162 vs Ktr FC (GammaA3): 3.51 | Tgfb2 (transforming growth factor, beta 2) regulated gene, Si162 vs Ktr FC (GammaA3): -1.69 | Tnc (tenascin C) regulated gene, Si162 vs Ktr FC (GammaA3): -1.32 | Zyx (zyxin) regulated gene, Si162 vs Ktr FC (GammaA3): -1.59 | Significantly regulated genes, total (number) (GammaA3; IC50 concentration, 96 h): more than 3500 | Significantly differentially regulated genes, downregulated (number) (GammaA3; IC50 concentration, 96 h): 1139 | Significantly differentially regulated genes, upregulated (number) (GammaA3; IC50 concentration, 96 h): 2453 | Change of caspase-3/7 activity in all cell lines (all tested cell lines): increased | Commonly regulated genes in both murine cell lines (number) ([1]; A2C12 and GammaA3, Fig. 4D): 259 | Genes regulated in common amongst all three human cell lines (number) ([1]; A549, CaCo2, HepG2, Fig. 4B): two | Actin protein expression (HepG2): 77 | Cdc2-p34 protein expression (HepG2): 12 | EGFR Y992-p protein expression (HepG2): 20 | EGFR Y1045-p protein expression (HepG2): 60 | EGFR protein expression (HepG2): 535 | EPS15 protein expression (HepG2): 56 | FAK protein expression (HepG2): 96 | STAT5 protein expression (HepG2): 35 | c-Abl protein expression (HepG2): 46 | c-Fos protein expression (HepG2): 58 | c-Src Y416-p protein expression (HepG2): 82 | c-Src protein expression (HepG2): 86 | hnRNP-K protein expression (HepG2): 59 | p38 protein expression (HepG2): 48 | p53 protein expression (HepG2): 73 | Ki (c-Abl): 0.444 µM
